These results are taken from patent US20240300945A1, “CLY SERIES COMPOUND, PREPARATION METHOD THEREFOR AND USE THEREOF IN PREPARATION OF DRUGS” (NANJING WELLBEST PHARMACEUTICAL CO., LTD, priority 2021, published 2024).

The subject of series [1] is rabbit ear acne model. As to the kind of experiment: Rabbit ear acne model: macroscopic observation and histological grading. Type of series: in vivo, New Zealand rabbits. The note with it: for number of rabbits with acne histological grading 2+: Grade 2; for number of rabbits with acne histological grading 2+ / number of rabbits with acne histological grading — / number of rabbits with acne histological grading 1+ / number of rabbits with acne histological grading 3+: right ear, 10 per group; for number of rabbits with acne histological grading —: Level 0, without acne; for number of rabbits with acne histological grading 1+: Level 1; for number of rabbits with acne histological grading 3+: Level 3. From the text:
(1) Preparation method of treatment cream: The excipient matrix components included methyl silicone oil (15%), stearic acid (6%), white vaseline (5%), liquid paraffin (5%), octadecanol (5%), glycerin (20%), alkyl aryl polyglycol ether (1%), fatty alcohol polyoxyethylene ether (1%), […] (1%), ethyl paraben (0.1%), distilled water (about 31-55%), and mixed with appropriate amount of CLY series compounds to form a mixed emulsion. The emulsion matrix used in this embodiment refers to the matrix component after the active ingredient was removed from the emulsion.
(2) Positive therapeutic drug: 0.1% adapalene gel (Trade name: Differin, produced by Laboratoires Galderma, France).
(§1) New Zealand rabbits were, according to weights, randomly divided into the model control group (applied cream matrix), positive treatment group (applied Differin on the skin), CLY-1 external treatment group (0.25% CLY-1 cream on the skin), CLY-2 external treatment group (0.25% CLY-2 cream on the skin), CLY-3 external treatment group (0.25% CLY-3 cream on the skin), CLY-4 external treatment group (0.25% CLY-4 cream on the skin) CLY-8 external treatment group (0.25% CLY-8 cream on the skin), CLY-9 external treatment group (0.25% CLY-9 cream on the skin), CLY-11 external treatment group (0.25% CLY-11 cream on the skin), CLY-19 external treatment group (0.25% CLY-19 cream on the skin), CLY-36 external treatment group (0.25% CLY-36 cream on the skin); CLY-1 intravenous injection group (1 mg/kg·d), CLY-2 intravenous injection group (1 mg/kg·d), CLY-3 intravenous injection group (1 mg/kg·d), CLY-4 intravenous injection group (1 mg/kg·d), CLY-8 intravenous injection group (1 mg/kg·d), CLY-9 intravenous injection group (1 mg/kg·d), CLY-11 intravenous injection group (1 mg/kg·d), CLY-19 intravenous injection group (1 mg/kg·d), and CLY-36 intravenous injection group (1 mg/kg·d), with 10 in each group. Took the inner side of the rabbit's right ear for depilation treatment as the observation area, and the inner side of the left ear of all rabbits as their own negative control, and applied 95% alcohol. The inner side of the right ear of the model group and the treatment group were both coated with 2% coal tar (Alfa Aesar China, which used 95% alcohol to prepare 2% coal tar solution), and evenly applied the sterile cotton swab to the opening of the ear duct on the inner side of the rabbit's ear within the range of about 2 cm×2 cm, once a day, 0.5 mL each time, and wiped the previous application site with warm water for 14 consecutive days to establish the acne micro-pigmentation model. Visually observed the changes of local skin, including ear thickness, hardness, roughness, and whether there was a black angle plug at the hair follicle mouth. 18 hours after the last application, the sample was sacrificed and skin was taken. The skin tissue was taken from the application site by using a 5 mm punch, fixed with 10% formaldehyde, embedded in paraffin, and stained with HE. The histopathological observation and analysis were carried out.
The histological grading criteria of the acne model: 3 grades according to histological grade. […] The tight keratin embolism in the hair follicles causes severe expansion of the hair follicles, obvious hyperplasia of the sebaceous duct epithelium, skin bulges and scars, and some sebaceous glands degenerate “3±”.
(§2) SPSS16 software was used for statistical analysis. The paired t-test was used for the left and right self-contrast, and the t-test was used for the comparison between the groups, P<0.05 was statistically significant.

Series [2] concerns rabbit ear acne model. Kind of series: Rabbit ear acne model: epidermal thickness, hair follicle area, sebaceous gland diameter. Type of series: in vivo, New Zealand rabbits. Conditions: rabbit right ear.
From the text: as §1
The histopathological changes were observed under the microscope, and the thickness of five different epidermises on a slice was measured with the Biomias99 image analysis system, and the average value was calculated; Detected the area of the two hair follicles and the diameter of the four sebaceous glands with the same position and the most complete structure in the four sections, calculated their average values, and then subtracted the data of the left and right external auditory canal of the rabbits in each group to obtain the difference in the thickness of the left and right ear epidermis, the difference in the area of the hair follicles and the difference in the diameter of the sebaceous glands.
as §2

Series [3] can be described thus: Pharmacokinetic properties of rats (bioavailability). Type of series: in vivo. Conditions: rat, po; male SD rats; intravenous 1 mg/kg, intragastric 5 mg/kg; plasma LC/MS/MS. The protocol: Male SD rats were randomly assigned to each group, 12 rats in each compound group, and then randomly divided into two groups. Six rats were administered intravenously (1 mg/kg), and blood was collected and plasma was separated respectively at 0.0833, 0.25, 0.5, 1, 2, 4, 6, 8, and 24 hours after administration. The other six rats were administered intragastrically (5 mg/kg), and blood was collected and plasma was separated respectively at 0.25, 0.5, 1, 2, 4, 6, 8, and 24 hours after administration. The concentration of each compound in plasma was determined by LC/MS/MS method, and the relevant pharmacokinetic parameters were calculated by using the software Phoenix WinNonlin 6.2.1, the bioavailability in rats was calculated, and the pharmacokinetic properties of each compound were evaluated.

The mark [4] stands for this setting: external use (0.25% CLY cream; positive: Differin).
[5] abbreviates: intravenous injection 1 mg/kg·d.

Marks after values point to notes of the source that are not given here.

Take `O=C(c1ccc(-n2nnc3cccnc32)cc1)N(c1ncccc1Cl)[C@@H]1CCCN1` [CLY-9]: in the series with rabbit ear acne model [1] (setting [4]), the “number of rabbits with acne histological grading 2+” value turned out to be 1, the “number of rabbits with acne histological grading —” value was 5, the “number of rabbits with acne histological grading 1+” value amounted to 4 and the “number of rabbits with acne histological grading 3+” value is 0. Further, in the series with rabbit ear acne model [1] (setting [5]), the “number of rabbits with acne histological grading 2+” value is recorded as 0, the “number of rabbits with acne histological grading —” value is listed as 7, the “number of rabbits with acne histological grading 1+” value was determined as 3 and the “number of rabbits with acne histological grading 3+” value is listed as 0. For the same molecule, in the series with rabbit ear acne model [2] (setting [4]), the epidermal thickness is given as 0.2389 ± 0.0189 mm, the hair follicle area is reported as 0.2834 ± 0.0981* mm^2 and the sebaceous gland diameter was found to be 0.0715 ± 0.0412 mm. In addition, in the series on rabbit ear acne model [2] (setting [5]), the epidermal thickness was determined as 0.2126 ± 0.0167 mm, the hair follicle area is on record as 0.2327 ± 0.0865* mm^2 and the sebaceous gland diameter is 0.0614 ± 0.0396 mm.

As a reminder, the bioavailability is dose-corrected exposure relative to a reference, in per cent. A lower bioavailability goes with poor availability. In series [3], `COC1CCC[C@@H](N(C(=O)c2cccc(-c3nnn[nH]3)c2)c2ncccc2Cl)C1` (some centres unmarked) [CLY-17] returned a bioavailability of 52.5%.

In turn, `O=C(c1ccc(-c2cccc(-c3nnn[nH]3)c2)cc1)N(c1ncccc1Cl)[C@@H]1CCNC1` [CLY-18] gave a bioavailability in series [3] of 46.9%.

In series [3], `O=C(c1ccccc1-c1nnn[nH]1)N(c1ncccc1Cl)[C@@H]1CCCNC1` [CLY-21] returned a bioavailability of 49.6%.

In series [3], `O=C(c1ccc(-c2ccc(Cl)cc2)cc1)N(c1ncccc1Cl)[C@@H]1CCCNC1` [CLY-26] displayed a bioavailability of 48.5%.

`Nc1ccccc1-c1ccc(C(=O)N(c2ncccc2Cl)[C@@H]2CCNC2)cc1` [CLY-28] returned a bioavailability in series [3] of 42.6%.

Regarding `Cc1ccccc1-c1ccc(C(=O)N(c2ncccc2Cl)[C@@H]2CCNC2)cc1` [CLY-30], the bioavailability in series [3] stood at 46.2%.

`CN1CCC[C@@H](N(C(=O)c2ccc(-c3ccccc3)cc2)c2ncccc2Cl)C1` [CLY-32] yielded a bioavailability in series [3] of 58.6%.

For the molecule `CCN1CCC[C@@H](N(C(=O)c2ccc(-c3ccc(Cl)cc3)cc2)c2ncccc2Cl)C1` [CLY-35], the bioavailability in series [3] worked out at 62.2%.

As for `O=C(c1ccccc1Cl)N(c1ncccc1Cl)[C@@H]1CCCNC1` [CLY-37], the bioavailability in series [3] is 56.5%.

In series [3], `CC(C)C(=O)OC(C)n1nnc(-c2c(-c3ccc(C(=O)N(c4ncccc4Cl)C4CCNC4)cc3)cnn2C)n1` [CLY-44, 1-(5-(4-(4-((3-chloropyridin-2-yl) (((R)-pyrrolidin-3-yl)carbamoyl)phenyl)-1-methyl-1H-pyrazol-5-yl)-2H-tetrazol-2-yl)ethyl isobutyrate] came in with a bioavailability of 50.6%.

Take `COc1ccc(-c2ccc3cc(C(=O)O)ccc3c2)cc1C12CC3CC(CC(C3)C1)C2` [Positive treatment group, adapalene, reference compound]: in the series with rabbit ear acne model [1] (setting [4]), the “number of rabbits with acne histological grading 2+” value amounted to 3, the “number of rabbits with acne histological grading —” value came to 5, the “number of rabbits with acne histological grading 1+” value is reported as 2 and the “number of rabbits with acne histological grading 3+” value is listed as 0. Besides, the “macroscopic observation of right ear” value with rabbit ear acne model [1] (after 14 days of coal tar, external treatment) is “slightly red, with a little desquamation and a small amount of acne”. In the series with rabbit ear acne model [2] (setting [4]), the epidermal thickness amounted to 0.2389 ± 0.0176 mm, the hair follicle area is 0.2789 ± 0.0926* mm^2 and the sebaceous gland diameter is 0.0723 ± 0.0387 mm.
